16 compounds from patent publication US10941114B2, “Small molecule lipid II inhibitors” (University Of Maryland, Baltimore, priority 2015, dated 2021) can be followed below.

The structures appear in SMILES notation. Structures can show the parent of a compound that is named as a salt. A value given as a limit tells only on which side of the number the result lay.

This assay concerns Staphylococcus aureus. Briefly: Antibacterial activity assay (MIC, broth dilution). The class given is cell-based. The arrangement: S. aureus Killing / Bacterial Killing S. aureus: unit not given here. The settings on record: for S. aureus Killing: anti-bacterial activity (MIC), strain not stated. (Broth dilution looks for growth in wells or tubes with falling amounts of substance.)

As a reminder, the MIC is the least concentration at which growth counts as inhibited. Take `CN(C)c1ccc(/C=C/c2cc(-c3ccc(C(F)(F)F)cc3)cc(-c3ccc(C(F)(F)F)cc3)[o+]2)cc1.F[B-](F)(F)F`: under “Staphylococcus aureus, Table 21, read-out: Staphylococcus aureus MIC”, the MIC was above 64 µg/mL.

Take `Cc1cc(C)[o+]c(C)c1` [2,4,6-trimethylpyrylium boron tetrafluoride salt]: the “S. aureus Killing” value is listed as above 64.

With `Cc1cc(-c2ccc(C)c(C)c2)cc(-c2ccc(C)c(C)c2)[o+]1` [2,4-bis(3,4-dimethylphenyl)-6-methylpyrylium boron tetrafluoride salt], the “S. aureus Killing” value is reported as above 64.

As for `CN(C)c1ccc(/C=C/C=C/c2cc(-c3ccc(C(C)(C)C)cc3)cc(-c3ccc(C(C)(C)C)cc3)[o+]2)cc1` [2,4-bis(4-(tert-butyl)phenyl)-6-((1E,3E)-4-(4-(dimethylamino)phenyl)buta-1,3-dien-1-yl)pyrylium boron tetrafluoride salt], the “S. aureus Killing” value was found to be 64.

For `Cc1cc(-c2ccc(C(C)(C)C)cc2)cc(-c2ccc(C(C)(C)C)cc2)[o+]1` [2,4-bis(4-(tert-butyl)phenyl)-6-methylpyrylium boron tetrafiuoride salt], the “S. aureus Killing” value is above 64.

On to `CN(C)c1ccc(/C=C/C=C/c2cc(-c3ccc(Br)cc3)cc(-c3ccc(Br)cc3)[o+]2)cc1` [2,4-bis(4-bromophenyi)-6-((1E,3E)-4-(4-(dimetliylamino)phenyl)buta-1,3-dien-1-yl)pyrylium boron tetrafluoride salt], for which the “S. aureus Killing” value is given as above 64.

As to `CN(C)c1ccc(/C=C/C=C/c2cc(-c3ccc(Cl)cc3)cc(-c3ccc(Cl)cc3)[o+]2)cc1` [2,4-bis(4-chlorophenyl)-6-((1E,3E)-4-(4-(dimethylamino)phenyl)buta-1,3-dien-1-yl)pyrylium boron tetrafluoride salt], the “S. aureus Killing” value was above 64.

Regarding `Cc1cc(-c2ccc(Cl)cc2)cc(-c2ccc(Cl)cc2)[o+]1` [2,4-bis(4-chlorophenyl)-6-methylpyrylium boron tetrafluoride salt], the “S. aureus Killing” value is recorded as above 64.

`CCc1ccc(-c2cc(C)[o+]c(-c3ccc(CC)cc3)c2)cc1` [2,4-bis(4-ethylphenyl)-6-methylpyrylium boron tetrafluoride salt]: the “S. aureus Killing” value is recorded as above 64.

Take `COc1ccc(-c2cc(C)[o+]c(-c3ccc(OC)cc3)c2)cc1` [2,4-bis(4-methoxyphenyl)-6-methylpyrylium boron tetrafluoride salt]: the “S. aureus Killing” value was above 64.

Take `Cc1ccc(-c2cc(/C=C/C=C/c3ccc(N(C)C)cc3)[o+]c(-c3ccc(C)c(C)c3)c2)cc1C` [2-((1E,3E)-4-(4-(dimethylamino)phenyl)buta-1,3-dien-1-yl)-4,6-bis(3,4~ dimethylphenyl) pyrylium boron tetrafluoride salt]: the “S. aureus Killing” value is 32.

On to `CCc1ccc(-c2cc(/C=C/C=C/c3ccc(N(C)C)cc3)[o+]c(-c3ccc(CC)cc3)c2)cc1` [2-((1E,3E)-4-(4-(dimethylamino)phenyl)buta-1,3-dien-1-yl)-4,6-bis(4-ethylphenyl) pyrylium boron tetrafluoride salt], for which the “S. aureus Killing” value is given as 8.

Take `Cc1ccc(-c2cc(/C=C/C=C/c3ccc(N(C)C)cc3)[o+]c(-c3ccc(C)cc3)c2)cc1` [2-((1E,3E)-4-(4-(dimethylamino)phenyl)buta-1,3-dien-1-yl)-4,6-di-p-tolylpyrylium boron tetrafluoride salt]: the “S. aureus Killing” value was 2.

For the compound `CN(C)c1ccc(/C=C/C=C/c2cc(-c3ccccc3)cc(-c3ccccc3)[o+]2)cc1` [2-((1E,3E)-4-(4-(dimethylamino)phenyl)buta-1,3-dien-1-yl)-4,6-diphenyl pyrylium boron tetrafluoride salt], the “S. aureus Killing” value is 4.

In the case of `Cc1cc(-c2ccccc2)cc(-c2ccccc2)[o+]1` [2-methy1-4,6-diphenylpyrylium boron tetrafluoride salt], the “S. aureus Killing” value was above 64.

As to `Cc1ccc(-c2cc(C)[o+]c(-c3ccc(C)cc3)c2)cc1` [2-methyl-4,6-di-p-tolylpyrylium boron tetrafluoride salt], the “S. aureus Killing” value is given as above 64.
